Data from ChEMBL document CHEMBL4392859, “Xylo-C-nucleosides with a pyrrolo[2,1-f][1,2,4]triazin-4-amine heterocyclic base: Synthesis and antiproliferative properties” (Bioorg Med Chem Lett, 2019).

What was measured:
Assay type in all cases: functional, cell-based; call rule not given here
CAPAN-1 = test: Antiproliferative activity against human Capan1 cells
[1] = Antiproliferative activity against human HAP1 cells
HCT-116 = test: Antiproliferative activity against human HCT116 cells
NCI-H460 = test: Antiproliferative activity against human NCI-H460 cells
[2] = Antiproliferative activity against human DND41 cells
HL-60 = test: Antiproliferative activity against human HL60 cells
K562 = test: Antiproliferative activity against human K562 cells
Z-138 = test: Antiproliferative activity against human Z138 cells
[3] = Homo sapiens, CAPAN-1, read-out: IC50
[4] = Homo sapiens, HAP1, read-out: IC50
[5] = Homo sapiens, HCT-116, read-out: IC50
[6] = Homo sapiens, NCI-H460, read-out: IC50
[7] = Homo sapiens, DND41, read-out: IC50
[8] = Homo sapiens, HL-60, read-out: IC50
[9] = Homo sapiens, K562, read-out: IC50
[10] = Homo sapiens, Z-138, read-out: IC50

With `CC(=O)O[C@@]12CO[C@@H]1C[C@H](O)[C@@]1(C)C(=O)[C@H](O)C3=C(C)[C@@H](OC(=O)[C@H](O)[C@@H](NC(=O)OC(C)(C)C)c4ccccc4)C[C@@](O)([C@@H](OC(=O)c4ccccc4)[C@H]21)C3(C)C` [DOCETAXEL ANHYDROUS] the IC50 (CAPAN-1; [3]) was 19 nM, the IC50 [1, 4] was 18 nM and the IC50 (HCT-116; [5]) was 4 nM. The IC50 (NCI-H460; [6]) was 7 nM, the IC50 [2, 7] was 14 nM and the IC50 (HL-60; [8]) was 47 nM. For the same compound, the IC50 (K562; [9]) was 16 nM and the IC50 (Z-138; [10]) was 9 nM.

With `N#C[C@@]1(c2ccc3c(N)ncnn23)O[C@H](CO)[C@H](O)[C@H]1O` the IC50 (CAPAN-1; capan-1) was “Not Active”, the IC50 [1] was “Not Active” and the IC50 (HCT-116; hct-116) was “Not Active”. For the same compound, the IC50 (NCI-H460; nci-h460) was “Not Active”, the IC50 [2] was “Not Active” and the IC50 (HL-60; hl-60) was “Not Active”. For the same compound, the IC50 (K562; k562) was “Not Active” and the IC50 (Z-138; z-138) was “Not Active”.

Work on `CN[C@@H]1C[C@H]2O[C@@](C)([C@@H]1OC)n1c3ccccc3c3c4c(c5c6ccccc6n2c5c31)C(=O)NC4` [STAUROSPORINE] yielded an IC50 (CAPAN-1; [3]) of 48 nM, an IC50 (HCT-116; [5]) of 37 nM and an IC50 [2, 7] of 23 nM. It also gave an IC50 (HL-60; [8]) of 19 nM, an IC50 (K562; [9]) of 83 nM and an IC50 (Z-138; [10]) of 18 nM.

In the case of `Nc1ncnn2c([C@@H]3O[C@H](CO)[C@H](O)[C@H]3O)ccc12`, the IC50 (CAPAN-1; [3]) is reported as 2700 nM, the IC50 [1, 4] is reported as 9300 nM and the IC50 (HCT-116; [5]) is reported as 8400 nM. The IC50 (NCI-H460; [6]) was 2000 nM, the IC50 [2, 7] was 2800 nM and the IC50 (HL-60; [8]) was 1900 nM. For the same compound, the IC50 (K562; [9]) was 4300 nM and the IC50 (Z-138; [10]) was 4000 nM.
